# According to patent US20070225344A1, “Sulfonamide derivatives to treat infection with hepatitis C virus” (priority 2006, published 2007):
# Tested on: not given
# Test: not given
# Settings: not given
row,SMILES,melting point [°C]
1,"O=C(O)[C@@H]1CCCN1S(=O)(=O)c1cc(Cl)cc(Cl)c1O [Example 11, 1-[(3,5-dichloro-2-hydroxyphenyl)sulfonyl]-L-proline]",107.4

# Target: T1, HCV RdRp NS5B d21BK (BK strain, 1b subtype) (Hepatitis C virus genotype 1b, UniProt P26663)
# T1 construct: NS5B from the BK strain (1b subtype) is expressed in E. coli as a protein in which the 21 C-terminal amino acids are replaced; made in house; host or cells: E. coli
# Test: HCV polymerase (NS5B) RNA-dependent RNA polymerase inhibition, 33P-GTP filter assay
# Assay type: biochemical
# Settings: in vitro; NS5B BK strain (1b subtype), 24 nM enzyme, 2 h at room temperature; read-out: HCV Polymerase Median IC50
# Description: The ability of the compounds of the present invention to inhibit hepatitis C polymerase was established by the following experimental procedure:
# NS5B from the BK strain (1b subtype) is expressed in E. coli as a protein in which the 21 C-terminal amino acids are replaced with a short linker and a hexahistidine tag (GSHHHHHH). The purified protein is mixed with radioactive nucleotides and allowed to replicate a heteropolymeric RNA substrate, primed by an endogenous short hairpin, resulting in an approximately 760 nt product. The radioactive product is captured on a filter and quantitated after removal of the unincorporated nucleotides.
# (1) Compounds 10 μl at 10 μg/ml in 15% DMSO
# Add 20 μl enzyme mix into each well of the assay plate. Incubate compound and enzyme at room temperature for 15 minutes.
# (3) Template Mix—Prepare Ahead.
# Spin down a tube of RNA (5 μg/tube stored in 75% ethanol and 0.3 M sodium acetate) in a microcentrifuge for 20 min. at 4° C. One tube is enough for 1 to 1½ plates. Remove as much ethanol from the tube as possible by inverting the tube. Be gentle, pellet RNA may not adhere to the tube. Vacuum dry the RNA. Resuspend the RNA by adding 1 ml of DEPC water, close the cap of the tube tightly. To dissolve RNA, incubate RNA solution on ice for ˜60 min. and gently vortex. Spin briefly to ensure all RNA solution is down to the bottom of the tube before opening cap. Gently transfer RNA solution into a 5 ml or larger tube. Add another 3 ml of DEPC water (total 4 ml of volume).
# Add the following volumes of reagents.
# Add 20 μl template mix per reaction (i.e. 20 ng of POF per reaction or ˜3 nM)
# (4) Incubate reaction at room temperature (22-25° C.) for 2 hours.
# (5) Stop reaction by adding 50 μl of 170 mM EDTA.
# Final concentration of EDTA is 85 mM.
# (6) Prewet filters of Millipore Multiscreen filter plate by adding 200 μl of 0.5 M sodium phosphate buffer, pH 7.0 into each well. Let stand at room temperature for 2-3 min.
# (7) Place the Multiscreen filter plate onto a Millipore Manifold and turn on vacuum to allow buffer to flow through. Turn off vacuum. Transfer 80 μl of the reaction product into each well of the filter plate. Let stand for 2-3 min. Turn on vacuum to filter reaction product.
# (8) Turn off vacuum. Add 200 μl of 0.5 M sodium phosphate buffer, pH 7.0 into each well to wash filter. Turn on vacuum.
# Repeat step (8) three more times.
# (9) Remove polypropylene bottom. Spot dry filter at the bottom with paper towel. Air dry filter plate on a bench for 1 hr. Add 40 μl Super Mix scintillant. Seal top of the plate with a tape. Place plate into a Packard carrier or MicroBeta carrier.
# (10) Count plate using a Packard Topcount or MicroBeta counter. Program 10 for ^33P in Top count or ^33P program in micro-beta.
# Percent inhibition is calculated after background subtraction as a percent reduction of activity relative to the positive control (average value of the plate excluding the negative controls).
# T1 sequence (P26663 2420-2997, looked up, natural form): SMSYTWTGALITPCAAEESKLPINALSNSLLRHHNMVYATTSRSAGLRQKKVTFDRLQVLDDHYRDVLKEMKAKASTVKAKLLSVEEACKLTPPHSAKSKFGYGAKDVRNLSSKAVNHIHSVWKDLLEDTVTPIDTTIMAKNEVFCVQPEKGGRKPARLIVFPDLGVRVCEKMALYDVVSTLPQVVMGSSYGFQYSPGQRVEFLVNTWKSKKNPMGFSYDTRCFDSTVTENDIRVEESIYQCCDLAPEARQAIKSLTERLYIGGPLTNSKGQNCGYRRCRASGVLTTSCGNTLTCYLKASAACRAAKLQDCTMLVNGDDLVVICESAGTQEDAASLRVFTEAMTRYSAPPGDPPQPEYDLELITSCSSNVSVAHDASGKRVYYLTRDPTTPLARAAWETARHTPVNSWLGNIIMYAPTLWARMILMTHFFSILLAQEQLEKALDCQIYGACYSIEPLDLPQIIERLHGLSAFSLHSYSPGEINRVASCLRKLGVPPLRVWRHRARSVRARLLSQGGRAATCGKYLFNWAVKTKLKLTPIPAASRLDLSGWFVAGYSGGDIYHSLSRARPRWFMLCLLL
row,SMILES,IC50 [µM]
1,"O=C(O)[C@@H]1CCCN1S(=O)(=O)c1cc(Cl)cc(Cl)c1O [Example 11, 1-[(3,5-dichloro-2-hydroxyphenyl)sulfonyl]-L-proline]",0.89
2,"O=C(O)[C@@H]1CSCN1S(=O)(=O)c1cc(Cl)cc(Br)c1O [Example 56, (4R)-3-[(3-bromo-5-chloro-2-hydroxyphenyl)sulfonyl]-1,3-thiazolidine-4-carboxylic acid]",11.2
3,"Cc1cc(NC(=O)c2ccccc2)c(S(=O)(=O)N2CCC[C@H]2C(=O)O)cc1Cl [Example 34, 1-{[2-(benzoylamino)-5-chloro-4-methylphenyl]sulfonyl}-L-proline]",10.1
4,"O=C(O)[C@H]1CCCN1S(=O)(=O)c1cc(Br)cc(Cl)c1O [Example 22, 1-[(5-bromo-3-chloro-2-hydroxyphenyl)sulfonyl]-D-proline]",4.81
5,"O=S(=O)(c1cc(Cl)cc(Cl)c1O)N1CCCC1 [Example 23, 2,4-dichloro-6-(pyrrolidin-1-ylsulfonyl)phenol]",4.85
